Laboratory results reported in article PMC11856857, “Protease-Resistant, Broad-Spectrum Antimicrobial Peptides with High Antibacterial and Antifungal Activity” (Life, 2025).
≈ marks a conversion by molar mass, not a printed value. Where a SMILES comes first, the peptide text is derived from it.

Columns and labels:
C. albicans ATCC 10231 = assay type: cell-based, Candida albicans
HaCaT cell line = assay type: cell-based, human; conditions: 24 h
Experimental: (§1) 3T3 and HaCaT cells were grown in DMEM consisting of 1% pen/strep and 10% FBS. A total of 5 × 10^4 cells were loaded into each well of a 96-well plate and incubated at 37 °C using a 5% CO2 incubator. All samples were measured in triplicate between 0.5–32 µg/mL concentrations and incubated at 37 °C for 24 h in a 5% CO2 incubator. Only cells and Mag-2 were used as negative and positive controls, respectively. After 24 h, cell cytotoxicity was evaluated using a cell proliferation kit (MTT, Roche, Basel, Switzerland) following the kit protocol and analyzed at 550 nm and 690 nm using a microplate reader (Gen5 Synergy HT BioTek). The concentration of peptides that killed 50% of the cells was determined as the IC50 in the cytotoxicity experiments.

3t3 cell line = assay type: cell-based, mouse; conditions: 24 h
Experimental: as §1

proteinase K = biological target: T1, proteinase K (Parengyodontium album, UniProt P06873); assay: Stability toward enzymatic degradation (protease resistance assay); assay type: in vitro ADME; conditions: peptide 1 mg/mL in TBS (50 mM Tris, 150 mM NaCl, pH 7.6) with 10% DMSO, proteinase K 1 mg/mL (30 U/mg), 37 °C, overnight (also 10 min, 30 min), HPLC at 214 nm
T1 construct: purchased Qiagen
T1 sequence (P06873 106-384): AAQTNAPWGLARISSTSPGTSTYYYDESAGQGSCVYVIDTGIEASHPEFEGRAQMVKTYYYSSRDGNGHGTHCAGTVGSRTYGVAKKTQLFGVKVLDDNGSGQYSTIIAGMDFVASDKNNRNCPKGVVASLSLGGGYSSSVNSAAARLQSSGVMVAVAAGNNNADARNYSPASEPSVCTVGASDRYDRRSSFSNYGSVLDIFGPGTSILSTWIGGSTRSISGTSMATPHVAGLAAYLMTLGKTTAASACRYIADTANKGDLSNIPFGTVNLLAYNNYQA
Experimental: Peptide solutions were prepared at a final concentration of 1 mg/mL in TBS buffer (50 mM Tris, 150 mM NaCl, pH 7.6) including 10% DMSO. The proteinase K solution was adjusted to 1 mg/mL (enzyme activity = 30 U/mg). The peptide solution was then incubated at 37 °C overnight in an orbital shaker. After incubation, the reaction was blocked by adding 1% TFA (100 µL) in water. Peptide solutions with/without the proteinase K enzyme were analyzed at 214 nm using HPLC with an analytic column (AdvanceBio Peptide Plus, 2.1 × 150 mm, 2.7 µm, LC column, Agilent Technologies, Santa Clara, CA, USA) following the linear gradient method (30 min in a range of 5–80% acetonitrile including 0.025% TFA). MIC experiments were repeated to measure biological activities after treating the peptides with proteinase K.

[1] = tested on: resistant Klebsiella pneumoniae (KP) strain; assay type: cell-based; conditions: resistant (KP) strain
[2] = tested on: methicillin-resistant S. aureus (MRSA)
Experimental: (§2) The antibacterial activity of the bacterial strains was determined using the EUCAST broth microdilution method [24]. Bacterial strains were streaked into the MHA and incubated at 37 °C overnight. The initial doses were adjusted to 1024 µg/mL using a peptide concentration measurement kit (Pierce™ Quantitative Fluorometric Peptide Assay, Thermo Scientific™) and serially diluted to 0.125 µg/mL. All samples were tested in triplicate [25, 26]. The antifungal activity of the Candida species was measured in accordance with the guidelines in CLSI document M27-A3 [27].

Aspergillus flavus (AF) = conditions: clinical strain AF1
Experimental: (§3) Clinically resistant bacterial strains that are classified as “ESKAPE pathogens”, including vancomycin-resistant Enterococcus faecium (VRE), methicillin-resistant S. aureus (MRSA), Klebsiella pneumoniae (KP), Acinetobacter baumannii (AB), P. aeruginosa (PA) by WHO21, multi-drug-resistant Aspergillus flavus (AF), C. albicans (CA), and C. krusei (CK), were provided by Acibadem Labmed.
as §2

[3] = tested on: vancomycin-resistant Enterococcus faecium (VRE)
Experimental: as §3, §2

[4] = tested on: Klebsiella pneumoniae (KP)
Experimental: as §2

[5] = tested on: Acinetobacter baumannii (AB)
Experimental: as §3, §2

[6] = tested on: ESKAPE pathogens, multi-drug-resistant A. flavus (AF), and C. albicans (CA) strains
Experimental: as §3, §2

[7] = tested on: S. aureus (ATCC 29213) inoculated wound
[8] = tested on: S. aureus (ATCC 29213)-infected silk suture wound; assay: Surgical site infection model; assay type: in vivo, Wistar rats; conditions: MICX40, 100 µL topically once, 3 h after treatment; p < 0.01
Experimental: Two McFarland S. aureus (ATCC 29213) bacteria were used for suture contamination. The 1.5 cm silk sutures (3-0) were incubated in brain heart infusion (BHI) broth at 37 °C, 150 rpm for 10 min. At the end of the incubation, the sutures were dried on sterile filter paper for 10 min. After drying, one of the sutures was placed in BHI broth, and the bacteria were measured. The number of bacteria obtained from the suture was 7 × 10^5 CFU/mL.
The rats were randomly divided into four groups consisting of seven rats per group and anesthetized with isoflurane. The back of the rat was shaved, sterilized with 70% ethanol, and two 1.5 cm full-thickness wounds were incised centrally on the dorsal midline of the neck. A 1.5 cm S. aureus (ATCC 29213)-infected 3-0 silk suture was placed into the wound incision. A staple was attached to the middle of the incision to prevent the rat from removing the infected suture. After implantation of the suture into the wound, the rats were treated topically once with 100 µL of D-TN6 (MICX40), ampicillin (MICX40), or SF. The animals were decapitated 3 h after treatment. Wound areas were dissected and placed into BHI broth. After homogenization, the bacteria on the wound were counted.

[9] = MICX40 topically twice a day for 10 days, ELISA, means ± S.E.M.

Experimental for C.albicans (CA): as §2
Experimental for C.krusei (CK): as §2
Experimental for P. aeruginosa (PA): as §2

SMILES: CC(C)C[C@@H](NC(=O)[C@H](N)CCCNC(=N)N)C(=O)N[C@H](CC(C)C)C(=O)N[C@H](CCCNC(=N)N)C(=O)N[C@H](CC(C)C)C(=O)N[C@H](CC(C)C)C(=O)N[C@H](CC(C)C)C(=O)N[C@H](CCCNC(=N)N)C(=O)N[C@H](CC(C)C)C(=O)N[C@H](CC(C)C)C(=O)N[C@H](CCCNC(=N)N)C(N)=O [D-TN6] (HELM PEPTIDE1{[dR].[dL].[dL].[dR].[dL].[dL].[dL].[dR].[dL].[dL].[dR].[am]}$$$$V2.0)
- MIC C. albicans (C. albicans ATCC 10231): 0.5 mg/L (≈ 0.349 µM)
- IC50 HaCaT (HaCaT cell line): 19.64 mg/L
- IC50 3t3 (3t3 cell line): 17.58 mg/L
- Stability toward proteinase K (HPLC) (proteinase K): resistant to proteinase K
- Stability toward proteinase K (HPLC) (proteinase K; listed as D- TN6): highly protease-resistant
- MIC KP1 [1]: 0.5 mg/L (≈ 0.349 µM)
- MIC KP2 [1]: 1 mg/L (≈ 0.697 µM)
- MIC KP8 [1]: 1 mg/L (≈ 0.697 µM)
- MIC KP9 [1]: 0.5 mg/L (≈ 0.349 µM)
- MIC KP13 [1]: 0.5 mg/L (≈ 0.349 µM)
- MIC KP22 [1]: 0.5 mg/L (≈ 0.349 µM)
- MIC KP28 [1]: 1 mg/L (≈ 0.697 µM)
- MIC KP29 [1]: 2 mg/L (≈ 1.39 µM)
- MIC KP35 [1]: 8 mg/L (≈ 5.58 µM)
- MIC KP40 [1]: 2 mg/L (≈ 1.39 µM)
- MIC KP41 [1]: 4 mg/L (≈ 2.79 µM)
- MIC KP42 [1]: 2 mg/L (≈ 1.39 µM)
- MIC KP46 [1]: 2 mg/L (≈ 1.39 µM)
- MIC KP52 [1]: 2 mg/L (≈ 1.39 µM)
- MIC MRSA 1 ([2]; clinical strain MRSA 1): 0.5 mg/L (≈ 0.349 µM)
- MIC MRSA 2 ([2]; clinical strain MRSA 2): 1 mg/L (≈ 0.697 µM)
- MIC MRSA 3 ([2]; clinical strain MRSA 3): 1 mg/L (≈ 0.697 µM)
- MIC AF1 (Aspergillus flavus (AF)): 4 mg/L (≈ 2.79 µM)
- MIC CA 1 (C.albicans (CA); clinical strain CA 1): 2 mg/L (≈ 1.39 µM)
- MIC CA 2 (C.albicans (CA); clinical strain CA 2): 2 mg/L (≈ 1.39 µM)
- MIC CA 3 (C.albicans (CA); clinical strain CA 3): 1 mg/L (≈ 0.697 µM)
- MIC VRE 1 ([3]; clinical strain VRE 1): 0.25 mg/L (≈ 0.174 µM)
- MIC VRE 2 ([3]; clinical strain VRE 2): 0.25 mg/L (≈ 0.174 µM)
- MIC CK 1 (C.krusei (CK); clinical strain CK 1): 2 mg/L (≈ 1.39 µM)
- MIC CK 2 (C.krusei (CK); clinical strain CK 2): 2 mg/L (≈ 1.39 µM)
- MIC CK 3 (C.krusei (CK); clinical strain CK 3): 2 mg/L (≈ 1.39 µM)
- MIC KP1 [4]: 4 mg/L (≈ 2.79 µM)
- MIC KP2 [4]: 2 mg/L (≈ 1.39 µM)
- MIC KP 3 [4]: 1 mg/L (≈ 0.697 µM)
- MIC KP 4 [4]: 1 mg/L (≈ 0.697 µM)
- MIC range against clinical A. baumannii strains ([5]; AB): 0.25 to 2 mg/L
- MIC AB1 ([5]; clinical strain AB1): 0.25 mg/L (≈ 0.174 µM)
- MIC AB2 ([5]; clinical strain AB2): 2 mg/L (≈ 1.39 µM)
- MIC PA1 (P. aeruginosa (PA)): 1 mg/L (≈ 0.697 µM)
- MIC PA2 (P. aeruginosa (PA)): 1 mg/L (≈ 0.697 µM)
- MIC PA3 (P. aeruginosa (PA)): 0.5 mg/L (≈ 0.349 µM)
- MIC PA4 (P. aeruginosa (PA)): 1 mg/L (≈ 0.697 µM)
- MIC range against seven species resistant to current antibiotics [6]: 0.25 to 4 mg/L
- Serum CRP ([7]; rat, in vivo): N
- indicators of toxicity by ALT, AST, TB, and CRP levels in serum ([7]; rat, in vivo): did not exhibit any indicators of toxicity
- toxic alterations of liver tissue hepatocytes and stratified epithelium ([7]; rat, in vivo): did not exhibit any toxic alterations

SMILES: CC1(C)S[C@@H]2[C@H](NC(=O)[C@H](N)c3ccccc3)C(=O)N2[C@H]1C(=O)O [ampicillin]
- bacterial counts in wound versus control group [8]: significantly reduced
- IL1-β, liver [7, 9]: 705.7 ± 87.07
- IL1-β, serum [7, 9]: 826.9 ± 105.5
- IL1-β, wound tissue [7, 9]: 1779 ± 45.54
- IL-6, liver [7, 9]: 35.51 ± 2.82
- IL-6, serum [7, 9]: 50.02 ± 2.04
- IL-6, wound tissue [7, 9]: 77.60 ± 4.77
- TNF-α, liver [7, 9]: 107.0 ± 8.14
- TNF-α, serum [7, 9]: 212.2 ± 9.02
- TNF-α, wound tissue [7, 9]: 225.4 ± 12.19
- wound healing by day 4 versus control group ([7]; MICX40 topically twice a day, p < 0.01): significantly accelerated
- Serum ALT ([7]; rat, in vivo): 52.4 ± 3 U/L
- Serum AST ([7]; rat, in vivo): 161.6 ± 12.8 U/L
- Serum CRP ([7]; rat, in vivo): N
- Serum TB ([7]; rat, in vivo): 0.1 mg/dL
- indicators of toxicity by ALT, AST, TB, and CRP levels in serum ([7]; rat, in vivo): did not exhibit any indicators of toxicity
